# Data reported in patent US20140127235A1, “TARGETING HK alpha FOR CONTROLLING BLOOD PRESSURE AND REGULATING ELECTROLYTE BALANCE” (UNIVERSITY OF FLORIDA RESEARCH FOUNDATION, INC., priority 2011, published 2014).
# Assay: DOCP treatment of wild type, HKα1−/− and HKα1,2−/− mice: body weight, blood electrolytes, urinary and fecal electrolyte excretion
# Format: in vivo, mouse
# Description: In a separate study, the effect of DOCP treatment of body weight change, blood electrolytes, and urinary and fecal electrolyte excretion was examined in wild type, HKα1^−/−, and HKα1,2^−/− mice on a normal diet.
# In the context of whole animal physiology, it is important to examine the overall electrolyte balance as the […] of urinary and fecal excretion subtracted from the intake of that electrolyte.
# Mice were fed normal lab chow, given free access to water, and given an i.m. injection of 1.7 mg DOCP (Percorten V, Novartis Pharmaceuticals). For perfusion and expression studies, mice were sacrificed with Na^+ pentobarbital (i.p. 120 mg/kg) followed by cervical dislocation. For time course experiments, another group of animals were anesthetized with 3-4% isoflurane and aortic blood was collected into a heparinized syringe for immediate analysis of electrolytes and blood gases (Nova pHOx Plus analyzer, Nova Biomedical). For high K^+ diet studies, mice were given a normal, powdered diet (TD99131, Teklad) supplemented with KCl to equal 5% K^+ which was then made as a gel. Half of the mice were treated with DOCP. Blood and tissues were collected as in the time course experiments. For urinalysis experiments, mice were housed in metabolic cages for thirteen days and fed a normal gel diet with free access to a water bottle. On day five, mice were treated with DOCP as above. Urine and feces were collected daily. Urine electrolytes were measured on a clinical analyzer (Nova 16 analyzer, Nova Biomedical) and fecal electrolytes were measured on a digital flame photometer (Model 2655-00, Cole-Parmer).
smiles,measurement,setting,value
"CC(C)(C)C(=O)OCC(=O)[C@H]1CC[C@H]2[C@@H]3CCC4=CC(=O)CC[C@]4(C)[C@H]3CC[C@]12C [DOCP, desoxycorticosterone pivalate]",effect of DOCP to decrease blood [Cl−] and increase blood [HCO3−],"HKα1,2−/− mice, day eight",eliminated
same,"K+ retention, less than wild type mice with DOCP treatment","HKα1,2−/− mice, day eight, overall balance",~40%
same,Overall Na+ retention versus wild type or HKα1−/− mice,"HKα1,2−/− mice, eighth day of DOCP treatment",significantly less
same,increase of fecal K+ loss with DOCP treatment,"HKα1−/− and HKα1,2−/− mice, versus control period",~50%
same,Urine volume by the end of DOCP treatment,HKα1−/− mice,considerably decreased
same,DOCP-induced body weight gain relative to wild type,"HKα1−/− mice, day eight, normal diet",augmented nearly two-fold
same,"dry stool weight, more than wild type or HKα1,2−/− mice when treated with DOCP","HKα1−/− mice, pair fed",50%
same,Urine volume by the end of DOCP treatment,"wild type and HKα1,2−/− mice",doubled
same,overall Na+ balance with DOCP treatment,wild type mice,increased
